Data taken from ChEMBL document CHEMBL5096230 (J Med Chem, 2022).

Legend:
Type in all cases: organism-based
Settings in all cases: in vivo, 120 h, time 5 day
[1] = Toxicity in BALB/c mouse assessed as lethargy at 8 mg/kg, iv administered daily for 5 days
[2] = Toxicity in BALB/c mouse assessed as animal death at 8 mg/kg, iv administered daily for 5 days and measured after 2 dose
[3] = Toxicity in BALB/c mouse at 50 mg/kg, iv administered daily for 5 days

Row | Structure (SMILES) | Activity [1] | Activity [2] | Activity [3]
1 | CC(=O)O[C@H]1C(=O)[C@@]2(C)[C@H]([C@H](OC(=O)c3ccccc3)[C@]3(O)C[C@H](OC(=O)[C@H](O)[C@@H](NC(=O)c4ccccc4)c4ccccc4)C(C)=C1C3(C)C)[C@]1(OC(C)=O)CO[C@@H]1C[C@@H]2O [PACLITAXEL] | Toxic | Toxic | 
2 | CC(=O)O[C@H]1C(=O)[C@@]2(C)[C@H]([C@H](OC(=O)c3ccccc3)[C@]3(O)C[C@H](OC(=O)[C@H](OC(=O)CCCCCn4cc(CCCC(=O)NCCCC[C@H](NC(=O)CNC(=O)[C@H](CCCCNC(=O)CNC(=O)[C@@H]5CCCN5C(=O)[C@H](CCCNC(=N)N)NC(=O)[C@H](Cc5ccccc5)NC(=O)[C@@H]5CCCN5C(=O)[C@@H](NC(=O)[C@H](C)NC(=O)[C@H](CC(=O)O)NC(=O)[C@@H]5CCCN5C(=O)[C@H](Cc5ccc(-c6ccccc6C(F)(F)F)cc5)NC(=O)[C@H](C)NC(=O)[C@H](CC(C)C)NC(=O)[C@H](Cc5ccc(N)cc5)NC(=O)CN5CCNCC5)C5CCCCC5)NC(=O)CNC(=O)[C@@H]5CCCN5C(=O)[C@H](CCCNC(=N)N)NC(=O)[C@H](Cc5ccccc5)NC(=O)[C@@H]5CCCN5C(=O)[C@@H](NC(=O)[C@H](C)NC(=O)[C@H](CC(=O)O)NC(=O)[C@@H]5CCCN5C(=O)[C@H](Cc5ccc(-c6ccccc6C(F)(F)F)cc5)NC(=O)[C@H](C)NC(=O)[C@H](CC(C)C)NC(=O)[C@H](Cc5ccc(N)cc5)NC(=O)CN5CCNCC5)C5CCCCC5)C(N)=O)nn4)[C@@H](NC(=O)c4ccccc4)c4ccccc4)C(C)=C1C3(C)C)[C@]1(OC(C)=O)CO[C@@H]1C[C@@H]2O |  |  | Non-Toxic
3 | CC(C)C[C@H](NC(=O)[C@H](Cc1ccc(N)cc1)NC(=O)CN1CCNCC1)C(=O)N[C@@H](C)C(=O)N[C@@H](Cc1ccc(-c2ccccc2C(F)(F)F)cc1)C(=O)N1CCC[C@H]1C(=O)N[C@@H](CC(=O)O)C(=O)N[C@@H](C)C(=O)N[C@H](C(=O)N1CCC[C@H]1C(=O)N[C@@H](Cc1ccccc1)C(=O)N[C@@H](CCCNC(=N)N)C(=O)N1CCC[C@H]1C(=O)NCC(=O)NCCCC[C@H](NC(=O)CNC(=O)[C@@H]1CCCN1C(=O)[C@H](CCCNC(=N)N)NC(=O)[C@H](Cc1ccccc1)NC(=O)[C@@H]1CCCN1C(=O)[C@@H](NC(=O)[C@H](C)NC(=O)[C@H](CC(=O)O)NC(=O)[C@@H]1CCCN1C(=O)[C@H](Cc1ccc(-c2ccccc2C(F)(F)F)cc1)NC(=O)[C@H](C)NC(=O)[C@H](CC(C)C)NC(=O)[C@H](Cc1ccc(N)cc1)NC(=O)CN1CCNCC1)C1CCCCC1)C(=O)NCC(=O)N[C@@H](CCCCNC(=O)CCCc1cn(CCCCCC(=O)O)nn1)C(N)=O)C1CCCCC1 |  |  | Non-Toxic
